# Measurements: the kinase profiling compilation of Christmann-Franck et al. (2016)
# Legend:
# Experiment in all cases: KINOMEscan competition binding
# Settings in all cases: compound 10.0 µM
# [1] = molecular target: YES1 (human) (UniProt P07947)
# [2] = molecular target: PIM1 (human) (UniProt P11309)
# [3] = molecular target: PI4KB (human) (UniProt Q9UBF8)
# [4] = molecular target: ICK (human) (UniProt Q9UPZ9)
# [5] = molecular target: ACVR1 (human) (UniProt Q04771)
# [6] = molecular target: JAK2 JH1 catalytic (human) (UniProt O60674)
# [7] = molecular target: DSTYK (human) (UniProt Q6XUX3)
# [8] = molecular target: GSK3B (human) (UniProt P49841)
# [9] = molecular target: PTK6 (human) (UniProt Q13882)
# Sequence of PTK6 (human) (Q13882 whole entry, looked up): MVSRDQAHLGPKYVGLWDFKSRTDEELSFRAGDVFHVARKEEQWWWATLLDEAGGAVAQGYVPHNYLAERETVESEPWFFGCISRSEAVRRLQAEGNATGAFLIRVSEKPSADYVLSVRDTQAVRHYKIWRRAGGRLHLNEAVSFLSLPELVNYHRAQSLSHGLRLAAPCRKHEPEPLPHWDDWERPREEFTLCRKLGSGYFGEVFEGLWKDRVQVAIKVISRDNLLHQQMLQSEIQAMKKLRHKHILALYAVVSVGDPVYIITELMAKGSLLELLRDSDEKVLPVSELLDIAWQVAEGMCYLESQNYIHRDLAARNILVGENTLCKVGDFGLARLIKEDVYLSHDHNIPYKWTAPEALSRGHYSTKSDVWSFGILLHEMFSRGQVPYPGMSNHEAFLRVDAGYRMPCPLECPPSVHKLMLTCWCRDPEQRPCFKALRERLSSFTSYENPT
# [10] = molecular target: EPHA3 (human) (UniProt P29320)
# [11] = molecular target: FES (human) (UniProt P07332)
# [12] = molecular target: STK17A (human) (UniProt Q9UEE5)
# [13] = molecular target: TAOK1 (human) (UniProt Q7L7X3)
# Sequence of TAOK1 (human) (Q7L7X3 whole entry, looked up): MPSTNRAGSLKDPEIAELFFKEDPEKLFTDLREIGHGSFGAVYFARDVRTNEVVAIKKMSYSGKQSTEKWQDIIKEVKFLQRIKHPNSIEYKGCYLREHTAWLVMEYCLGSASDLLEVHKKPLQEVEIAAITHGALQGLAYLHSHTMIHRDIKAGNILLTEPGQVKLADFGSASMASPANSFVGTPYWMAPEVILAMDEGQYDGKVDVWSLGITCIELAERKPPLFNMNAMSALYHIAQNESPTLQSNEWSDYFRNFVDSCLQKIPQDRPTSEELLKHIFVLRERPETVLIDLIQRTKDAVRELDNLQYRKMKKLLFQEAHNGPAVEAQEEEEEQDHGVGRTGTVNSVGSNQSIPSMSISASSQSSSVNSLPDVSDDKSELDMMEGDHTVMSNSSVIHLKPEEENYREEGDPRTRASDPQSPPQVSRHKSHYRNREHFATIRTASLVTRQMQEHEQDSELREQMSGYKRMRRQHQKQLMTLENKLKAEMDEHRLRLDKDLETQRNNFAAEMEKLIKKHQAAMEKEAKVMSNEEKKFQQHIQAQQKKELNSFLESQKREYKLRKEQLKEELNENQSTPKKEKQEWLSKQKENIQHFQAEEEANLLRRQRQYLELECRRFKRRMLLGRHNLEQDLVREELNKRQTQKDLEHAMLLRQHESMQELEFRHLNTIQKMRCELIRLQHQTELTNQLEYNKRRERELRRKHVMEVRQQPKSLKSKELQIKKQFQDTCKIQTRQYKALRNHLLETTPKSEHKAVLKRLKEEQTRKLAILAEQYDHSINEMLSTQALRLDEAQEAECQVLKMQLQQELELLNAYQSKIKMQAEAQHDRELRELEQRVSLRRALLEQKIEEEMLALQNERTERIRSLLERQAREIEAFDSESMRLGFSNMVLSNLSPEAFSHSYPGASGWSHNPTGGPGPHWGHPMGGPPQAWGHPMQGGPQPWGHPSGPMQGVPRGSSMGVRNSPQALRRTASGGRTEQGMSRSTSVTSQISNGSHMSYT
# [14] = molecular target: LIMK1 (human) (UniProt P53667)
# Sequence of LIMK1 (human) (P53667 whole entry, looked up): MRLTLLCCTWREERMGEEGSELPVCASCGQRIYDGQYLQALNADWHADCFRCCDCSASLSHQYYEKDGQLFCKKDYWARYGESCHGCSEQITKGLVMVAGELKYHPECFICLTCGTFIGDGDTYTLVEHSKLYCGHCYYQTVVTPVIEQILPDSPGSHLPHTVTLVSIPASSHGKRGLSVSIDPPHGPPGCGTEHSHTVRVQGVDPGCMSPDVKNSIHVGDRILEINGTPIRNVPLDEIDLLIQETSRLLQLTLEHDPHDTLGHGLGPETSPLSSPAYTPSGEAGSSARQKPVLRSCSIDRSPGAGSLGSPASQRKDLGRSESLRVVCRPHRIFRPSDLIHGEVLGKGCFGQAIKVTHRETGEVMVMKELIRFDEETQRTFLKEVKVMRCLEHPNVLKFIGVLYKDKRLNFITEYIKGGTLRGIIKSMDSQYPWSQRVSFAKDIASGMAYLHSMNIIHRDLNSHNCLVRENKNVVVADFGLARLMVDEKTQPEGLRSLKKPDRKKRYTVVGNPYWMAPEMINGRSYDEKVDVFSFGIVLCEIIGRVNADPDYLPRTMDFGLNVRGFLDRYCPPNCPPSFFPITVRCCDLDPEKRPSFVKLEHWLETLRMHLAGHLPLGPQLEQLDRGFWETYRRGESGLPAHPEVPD
# [15] = molecular target: MAPK4 (human) (UniProt P31152)
# Sequence of MAPK4 (human) (P31152 whole entry, looked up): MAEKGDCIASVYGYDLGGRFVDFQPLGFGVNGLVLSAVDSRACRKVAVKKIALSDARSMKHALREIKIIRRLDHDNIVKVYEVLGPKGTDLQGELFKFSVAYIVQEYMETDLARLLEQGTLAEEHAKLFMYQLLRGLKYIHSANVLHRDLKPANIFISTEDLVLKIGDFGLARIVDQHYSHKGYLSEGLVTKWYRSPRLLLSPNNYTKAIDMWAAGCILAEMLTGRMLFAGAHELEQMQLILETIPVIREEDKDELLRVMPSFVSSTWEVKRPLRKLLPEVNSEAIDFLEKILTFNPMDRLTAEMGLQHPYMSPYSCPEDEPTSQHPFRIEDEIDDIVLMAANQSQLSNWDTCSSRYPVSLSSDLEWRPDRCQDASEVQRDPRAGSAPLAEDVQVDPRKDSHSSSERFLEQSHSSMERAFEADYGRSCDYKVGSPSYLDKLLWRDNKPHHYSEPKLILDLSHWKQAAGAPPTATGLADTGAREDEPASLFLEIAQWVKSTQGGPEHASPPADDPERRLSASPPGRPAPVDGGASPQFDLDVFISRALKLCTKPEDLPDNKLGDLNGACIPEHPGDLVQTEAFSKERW
# [16] = molecular target: ADCK3 (human) (UniProt Q8NI60)
# [17] = molecular target: GRK1 (human) (UniProt Q15835)
# [18] = molecular target: MAK (human) (UniProt P20794)
# Sequence of MAK (human) (P20794 whole entry, looked up): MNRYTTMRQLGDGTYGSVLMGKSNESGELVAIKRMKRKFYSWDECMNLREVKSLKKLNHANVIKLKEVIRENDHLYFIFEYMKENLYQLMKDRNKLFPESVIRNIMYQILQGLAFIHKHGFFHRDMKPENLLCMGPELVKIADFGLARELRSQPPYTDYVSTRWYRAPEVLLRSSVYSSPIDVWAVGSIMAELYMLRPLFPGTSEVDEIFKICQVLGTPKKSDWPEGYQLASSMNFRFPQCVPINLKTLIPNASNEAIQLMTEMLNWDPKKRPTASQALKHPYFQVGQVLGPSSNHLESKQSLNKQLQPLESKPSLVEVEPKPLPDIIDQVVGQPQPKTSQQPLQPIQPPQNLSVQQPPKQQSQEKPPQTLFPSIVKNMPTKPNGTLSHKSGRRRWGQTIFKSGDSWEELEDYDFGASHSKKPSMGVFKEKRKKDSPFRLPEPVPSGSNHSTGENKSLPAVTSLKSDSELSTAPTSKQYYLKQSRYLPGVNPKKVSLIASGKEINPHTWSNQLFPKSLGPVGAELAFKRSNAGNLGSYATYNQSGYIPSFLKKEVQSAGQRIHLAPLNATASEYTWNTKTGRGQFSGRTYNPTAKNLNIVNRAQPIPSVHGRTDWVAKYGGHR
# [19] = molecular target: STK3 (human) (UniProt Q13188)
# [20] = molecular target: CLK3 (human) (UniProt P49761)
# [21] = molecular target: MYLK4 (human) (UniProt Q86YV6)
# [22] = molecular target: WEE2 (human) (UniProt P0C1S8)
# [23] = molecular target: PAK7 (human) (UniProt Q9P286)
# [24] = molecular target: MAPK6 (human) (UniProt Q16659)
# Sequence of MAPK6 (human) (Q16659 whole entry, looked up): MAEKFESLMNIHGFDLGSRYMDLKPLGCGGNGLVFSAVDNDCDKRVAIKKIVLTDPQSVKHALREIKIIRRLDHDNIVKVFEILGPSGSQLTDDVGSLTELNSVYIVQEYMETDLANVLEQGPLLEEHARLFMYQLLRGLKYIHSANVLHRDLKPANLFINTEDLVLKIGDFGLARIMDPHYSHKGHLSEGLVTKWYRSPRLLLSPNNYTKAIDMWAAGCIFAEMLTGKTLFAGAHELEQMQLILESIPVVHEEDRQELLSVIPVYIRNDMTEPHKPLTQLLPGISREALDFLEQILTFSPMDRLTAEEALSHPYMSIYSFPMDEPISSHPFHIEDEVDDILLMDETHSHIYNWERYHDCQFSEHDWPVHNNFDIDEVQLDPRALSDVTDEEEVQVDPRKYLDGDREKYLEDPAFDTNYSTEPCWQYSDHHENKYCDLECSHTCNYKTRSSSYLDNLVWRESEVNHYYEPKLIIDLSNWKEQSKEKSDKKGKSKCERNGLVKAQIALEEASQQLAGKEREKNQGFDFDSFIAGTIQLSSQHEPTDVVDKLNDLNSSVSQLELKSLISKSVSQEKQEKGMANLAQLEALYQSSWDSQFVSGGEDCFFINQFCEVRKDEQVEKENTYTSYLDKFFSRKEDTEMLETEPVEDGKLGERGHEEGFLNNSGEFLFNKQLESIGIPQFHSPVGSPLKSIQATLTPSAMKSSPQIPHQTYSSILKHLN
# [25] = molecular target: SGK110 (human) (UniProt P0C264)
# [26] = molecular target: ROCK1 (human) (UniProt Q13464)
# [27] = molecular target: PIK3CA (human) (UniProt P42336)
# [28] = molecular target: MELK (human) (UniProt Q14680)
# [29] = molecular target: STK38 (human) (UniProt Q15208)
# [30] = molecular target: ROS1 (human) (UniProt P08922)
# [31] = molecular target: TRPM6 (human) (UniProt Q9BX84)
# [32] = molecular target: INSR (human) (UniProt P06213)
# [33] = molecular target: DYRK1A (human) (UniProt Q13627)
# [34] = molecular target: TNK2 (human) (UniProt Q07912)
# [35] = molecular target: NEK1 (human) (UniProt Q96PY6)
# [36] = molecular target: MST4 (human) (UniProt Q9P289)
# [37] = molecular target: MAP4K3 (human) (UniProt Q8IVH8)
# [38] = molecular target: MST1R (human) (UniProt Q04912)
# [39] = molecular target: TTK (human) (UniProt P33981)
# [40] = molecular target: AXL (human) (UniProt P30530)
# [41] = molecular target: MAPK7 (human) (UniProt Q13164)
# Sequence of PI4KB (human) (Q9UBF8 whole entry, looked up): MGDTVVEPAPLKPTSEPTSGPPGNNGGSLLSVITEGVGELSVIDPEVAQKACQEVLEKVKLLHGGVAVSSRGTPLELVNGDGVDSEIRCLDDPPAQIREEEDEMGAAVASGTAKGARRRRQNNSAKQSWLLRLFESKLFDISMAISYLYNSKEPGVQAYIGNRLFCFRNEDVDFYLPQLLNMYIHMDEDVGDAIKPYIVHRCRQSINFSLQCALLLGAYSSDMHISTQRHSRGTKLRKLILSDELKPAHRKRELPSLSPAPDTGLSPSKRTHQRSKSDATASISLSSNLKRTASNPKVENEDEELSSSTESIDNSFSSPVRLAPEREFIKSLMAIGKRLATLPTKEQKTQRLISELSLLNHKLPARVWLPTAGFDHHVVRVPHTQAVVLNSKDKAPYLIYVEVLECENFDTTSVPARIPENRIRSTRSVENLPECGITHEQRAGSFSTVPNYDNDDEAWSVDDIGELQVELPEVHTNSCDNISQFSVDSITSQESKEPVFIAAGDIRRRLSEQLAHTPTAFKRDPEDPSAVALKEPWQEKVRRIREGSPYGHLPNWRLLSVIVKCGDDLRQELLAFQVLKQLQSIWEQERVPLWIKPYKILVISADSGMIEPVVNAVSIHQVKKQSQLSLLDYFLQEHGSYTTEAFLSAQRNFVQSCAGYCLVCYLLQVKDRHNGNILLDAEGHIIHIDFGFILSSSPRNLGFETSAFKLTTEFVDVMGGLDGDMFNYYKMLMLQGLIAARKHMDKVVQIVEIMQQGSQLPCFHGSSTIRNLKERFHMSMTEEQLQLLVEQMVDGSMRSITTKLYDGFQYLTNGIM
compound,measurement,setting,value
CCN1CCN(Cc2ccc(NC(=O)c3ccc(C)c(/C=C/c4cnc5[nH]ccc5c4OC)c3)cc2C(F)(F)F)CC1,"kinase still bound, per cent of control",[1],0.65%
same,"kinase still bound, per cent of control",[2],100%
same,"kinase still bound, per cent of control",[3],91%
same,"kinase still bound, per cent of control",[4],99%
same,"kinase still bound, per cent of control",[5],100%
same,"kinase still bound, per cent of control",[6],12%
same,"kinase still bound, per cent of control",[7],36%
same,"kinase still bound, per cent of control",[8],99%
same,"kinase still bound, per cent of control",[9],9.6%
same,"kinase still bound, per cent of control",[10],4.8%
same,"kinase still bound, per cent of control",[11],0.2%
same,"kinase still bound, per cent of control",[12],1.3%
same,"kinase still bound, per cent of control",[13],0.75%
same,"kinase still bound, per cent of control",[14],7.7%
same,"kinase still bound, per cent of control",[15],100%
same,"kinase still bound, per cent of control",[16],100%
same,"kinase still bound, per cent of control",[17],96%
same,"kinase still bound, per cent of control",[18],100%
same,"kinase still bound, per cent of control",[19],5.2%
same,"kinase still bound, per cent of control",[20],100%
same,"kinase still bound, per cent of control",[21],23%
same,"kinase still bound, per cent of control",[22],4.8%
same,"kinase still bound, per cent of control",[23],100%
same,"kinase still bound, per cent of control",[24],100%
same,"kinase still bound, per cent of control",[25],41%
same,"kinase still bound, per cent of control",[26],43%
same,"kinase still bound, per cent of control",[27],100%
same,"kinase still bound, per cent of control",[28],20%
same,"kinase still bound, per cent of control",[29],72%
same,"kinase still bound, per cent of control",[30],100%
same,"kinase still bound, per cent of control",[31],100%
same,"kinase still bound, per cent of control",[32],79%
same,"kinase still bound, per cent of control",[33],63%
same,"kinase still bound, per cent of control",[34],0.8%
same,"kinase still bound, per cent of control",[35],89%
same,"kinase still bound, per cent of control",[36],18%
same,"kinase still bound, per cent of control",[37],14%
same,"kinase still bound, per cent of control",[38],100%
same,"kinase still bound, per cent of control",[39],6.8%
same,"kinase still bound, per cent of control",[40],4.6%
same,"kinase still bound, per cent of control",[41],73%
